From patent US20010004460A1, “PROCESS FOR THE PREPARATION OF RICE SEED FOR SOWING” (priority 1995, published 2001)

Columns and labels:
[1] = tested on: rice seeds; experiment: Stand establishment of pregerminated rice seed treated with mancozeb slurry, flown onto flooded fields; type: in vivo; conditions: slurry at 19-22 fluid ounces per hundred pounds of seed
[2] = tested on: rice seeds; conditions: in vivo
Procedure: Seed was tested for germination in an incubator and also flown onto a flooded field under standard agricultural practices.

[3] = tested on: rice seeds; experiment: Seedling growth of pregerminated rice seed coated with gibberellic acid, sown by plane in flooded field

Compound: [[1,2-ethanediylbis[carbamodithioato]](2-)]manganese mixture with [[1,2-ethanediylbis [carbamodithioato]](2—)]zinc [mancozeb]
- stand of rice plants established [1]: acceptable stand

Compound: N#Cc1nn(-c2c(Cl)cc(C(F)(F)F)cc2Cl)c(N)c1[S+]([O-])C(F)(F)F (stereo not drawn) [fipronil, 5-amino-1-(2,6-dichloro-4-trifluoromethylphenyl)-4-trifluoromethylsulfinyl-3-cyanopyrazole]
- appearance of pregerminated seeds after machine mixing [2]: appeared undamaged
- stand establishment [2]: the same as untreated seed

Compound: C=C1C[C@]23C[C@@]1(O)CC[C@H]2[C@@]12C=C[C@H](O)[C@@](C)(C(=O)O1)[C@H]2[C@@H]3C(=O)O [gibberellic acid]
- size of root relative to shoot ([3]; 3 to 10 days after sowing): approximately the same size
- resistance of seedlings to wind ([3]; 3 to 10 days after sowing, located in the soil at a depth of 0 to 2 mm): highly resistant to wind
- appearance of germinated seeds after machine mixing ([3]; […], radicles 1 to 8 mm): appeared undamaged
